The source of these data is patent US5919782A, “Heterocyclic compounds having antidiabetic, hypolipidaemic, antihypertensive properties, process for their preparation and pharmaceutical compositions containing them” (Dr. Reddy's Research Foundation, priority 1996, dated 1999).

Where a name gives a salt, the structure may show the parent alone.

The subject of one data set is C57 BL/KsJ-db/db mice. As to the kind of experiment: blood sugar and triglycerides lowering activity in db/db mice. The class given is in vivo, mouse (male C57 BL/KsJ-db/db). The note with it: for Reduction in Blood Glucose Level / Triglyceride Lowering: oral gavage daily for 6 days, db/db mice. The text has this:
Mutation in colonies of laboratory animals and different sensitivities to dietary regimens have made the development of animal models with non-insulin dependent diabetes associated with obesity and insulin resistance possible. Genetic models such as db/db and ob/ob (See Diabetes, (1982) 31(1): 1-6) in mice and fa/fa and zucker rats have been developed by the various laboratories for understanding the pathophysiology of disease and testing the efficacy of new antidiabetic compounds (Diabetes, (1983) 32: 830-838; Annu. Rep. Sankyo Res. Lab. (1994). 46: 1-57). The homozygous animals, C57 BL/KsJ-db/db mice developed by Jackson Laboratory, US, are obese, hyperglycemic, hyperinsulinemic and insulin resistant (J. Clin. Invest., (1990) 85: 962-967), whereas heterozygous are lean and normoglycemic. In db/db model, mice progressively develop insulinopenia with age, a feature commonly observed in late stages of human type II diabetes when blood sugar levels are insufficiently controlled. The state of pancreas and its course vary according to the models. Since this model resembles that of type II diabetes mellitus, the compounds of the present invention were tested for blood sugar and triglycerides lowering activities.
Male C57 BL/KsJ-db/db mice of 8 to 14 weeks age, having body weight range of 35 to 60 grams, procured from the Jackson Laboraotory, USA, were used in the experiment. The mice were provided with standard feed (National Institute of Nutrition, Hyderabad, India) and acidified water, ad libitum. The animals having more than 300 mg/dl blood sugar were used for testing. The number of animals in each group was 4.
The random blood sugar and triglyceride levels were measured by collecting blood (100 μl) through orbital sinus, using heparinised capillary in tubes containing EDTA which was centrifuged to obtain plasma. The plasma glucose and triglyceride levels were measured spectrometrically, by glucose oxidase and glycerol-3-PO4 oxidase/peroxidase enzyme (Dr. Reddy's Lab. Diagnostic Division Kits, Hyderabad, India) methods respectively. On 6th day the blood samples were collected one hour after administration of test compounds/vehicle for assessing the biological activity.
Test compounds were suspended on 0.25% carboxymethyl cellulose or water (for water soluble compounds) and administered to test group at a dose of 10 to 30 mg/kg through oral gavage daily for 6 days. The control group received vehicle (dose 10 ml/kg).
The blood sugar and triglycerides lowering activities of the test compound was calculated according to the formula: [formula] ZC=Zero day control group value DC=Zero day treated group value
TC=Control group value on test day
DT=Treated group value on the test day

The test system of the next data set is rats. The experiment in a line: Subacute toxicity in rats. The class given is in vivo. As to conditions: 100 mg/kg orally. As for the experimental part:
Groups of 20 rats, consisting of 10 males and 10 females, weighing between 120 to 140 gm, received orally 100 mg/kg of compound of Example 6 for 28 days. The behavioral changes and body weights were monitored daily. The rats were sacrificed on the 29th day and blood was collected for hematological and biochemical estimations. All vital organs were examined both macroscopically and microscopically.

As for `O=C1NC(=O)C(=Cc2ccc(OC[C@@H]3CCCN3c3ccccn3)cc2)S1` [Example 6, 5-[4-[[1-(Pyridin-2-yl)-(2S)-pyrrolidin-2-yl]methoxy]phenylmethylene]thiazolidine-2,4-dione, maleic acid salt], in the data set on C57 BL/KsJ-db/db mice (10 mg/kg), the “Reduction in Blood Glucose Level” value is listed as 49% and the “Triglyceride Lowering” value amounted to 71%. Besides, in the data set with rats (28 days), the “gross macroscopic and microscopic changes of heart, lungs, bone marrow, kidneys and spleen” value was “No gross macroscopic and microscopic changes of heart, lungs, bone marrow, kidneys and spleen were observed”; the mortality result is reported as “did not produce any mortality”. For the same molecule, the “Organ Weight, Heart” value in the data set with rats (28 days, Control 0.59 ± 0.09) was 0.61 ± 0.08 g. The RBC in the data set with rats (28 days, Control 7.33 ± 0.75) is on record as 7.08 ± 0.93 × 10^6 /mm^3. Besides, the WBC in the data set on rats (28 days, Control 8.08 ± 2.01) was 9.19 ± 2.11 × 10^3 /mm^3. Also, in the data set on rats (28 days, Control 15.18 ± 0.69), the Hemoglobin is reported as 14.88 ± 0.46 gm/dl. Also, the PVC in the data set on rats (28 days, Control 52.06 ± 2.58) came out at 52.21 ± 2.67%. Besides, the “hematological and biochemical parameters, deviations from control” value in the data set with rats (end of 28 days treatment) was “no significant deviations from the control were observed in hematological and biochemical parameters”.
Turning to `O=C1NC(=O)C(=Cc2ccc(OC[C@@H]3CCCN3c3ccccn3)cc2)S1` [Example 7, 5-[4-[[1-(Pyridin-2-yl)-(2S)-pyrrolidin-2-yl]methoxy]phenylmethylene]thiazolidine-2,4-dione, hydrochloride salt], in the data set on C57 BL/KsJ-db/db mice (30 mg/kg), the “Reduction in Blood Glucose Level” value is given as 67% and the “Triglyceride Lowering” value was 43%.
On to `O=C1NC(=O)C(Cc2ccc(OC[C@@H]3CCCN3c3ccc4ccccc4n3)cc2)S1` (stereo partly drawn) [Example 12, 5-[4-[[1-(Quinolin-2-yl)-(2S)-pyrrolidin-2-yl]methoxy]phenylmethyl]thiazolidine-2,4-dione], for which, in the data set with C57 BL/KsJ-db/db mice (30 mg/kg), the “Reduction in Blood Glucose Level” value stood at 27% and the “Triglyceride Lowering” value stood at 49%.
With `Cc1cc(N2CCC[C@H]2COc2ccc(CC3SC(=O)NC3=O)cc2)nc2ccccc12` (stereo partly drawn) [Example 20, 5-[4-[[1-(Lepidin-2-yl)-(2S)-pyrrolidin-2-yl]methoxy]phenylmethyl]thiazolidine-2,4-dione, sodium salt], in the data set on C57 BL/KsJ-db/db mice (30 mg/kg), the “Reduction in Blood Glucose Level” value worked out at 30% and the “Triglyceride Lowering” value was 62%.
With `O=C1NC(=O)C(=Cc2ccc(O[C@H]3CCN(c4ccccn4)C3)cc2)S1` [Example 23, 5-[4-[1-(Pyridin-2-yl)-(3S)-pyrrolidin-3-yloxy]phenylmethylene]thiazolidine-2,4-dione, hydrochloride salt], in the data set on C57 BL/KsJ-db/db mice (10 mg/kg), the “Reduction in Blood Glucose Level” value is reported as 46% and the “Triglyceride Lowering” value amounted to 10%.
The like results for `O=C1NC(=O)C(Cc2ccc(OCC3CN(c4ccccn4)CCO3)cc2)S1` (stereo not drawn) [Example 27, 5-[4-[[4-(Pyridin-2-yl)morpholin-2yl]methoxy]phenylmethyl]thiazolidine-2,4-dione, sodium salt] were, in that order, 56% and 29%.
With `Cc1c(C)c2c(c(C)c1O)CCC(C)(COc1ccc(CC3SC(=O)NC3=O)cc1)O2` (stereo not drawn) [Troglitazone, reference compound], in the data set with C57 BL/KsJ-db/db mice (100 mg/kg daily dose, standard drug, on 6th day), the “reduction in random blood sugar level” value came out at 28%.
